Experiments:
Format in all cases: cell-based
[1] = tested on: P. aeruginosa; test: Ex vivo lung infection system (mouse lung explants infected with P. aeruginosa); settings: 37° C.; for lung colonization by P. aeruginosa / lung tissue death: mouse lung explants, ~2 days (FIGS. 10D and 11); for tissue damage (Hematoxylin/eosin histology): mouse lung tissue with P. aeruginosa, 2 days
From the text: FIG. 10A is a scanning Electron Microscopy (SEM) image of biofilms of partially bleached sputum sample from P. aeruginosa positive CF patient A4, containing bleach-resistant mineralized tissue. FIG. 10B is a SEM image of biofilms of partially bleached sputum sample from P. aeruginosa positive CF patient A62 (left), accompanied by an image taken with the backscattering mode (right), containing bleach-resistant mineralized tissue. […] P. aeruginosa strain PA14 expressing GFP (green) was used to infect a lung tissue (nucleoli of lung cells were stained with DAPI—blue). Lung tissue was harvested from one month old mice and incubated in DMEM 5% FCS at 37° C. for 2 days, in the presence of P. aeruginosa, sectioned and visualized. […] Lungs were harvested from one month old mice and tissue was incubated in DMEM 5% FCS, either with or without AHA, as indicated. To each sample, either P. aeruginosa or DMEM (control) was added. Samples were incubated at 37° C. for 2 days, sectioned, stained with Hematoxylin/eosin stain and visualized.
Lungs were harvested from one month old mice and tissue was incubated in DMEM 5% FCS, either with or without DTNB, as indicated. To each sample, either P. aeruginosa or DMEM (control) was added. Samples were incubated at 37° C. for 2 days, sectioned, stained with Hematoxylin/eosin stain and visualized.
Ex vivo lung infection system—Lungs were harvested from 2 mice (one month old) and placed in petri dishes containing DMEM 5% FCS. The tissue was divided into circular pieces 4 mm in diameter with a biopsy punch and transferred to a 24 wells plate (4-5 explants/well) with 450 μl DMEM containing 100 μg/ml carbenicillin (Sigma-Aldrich) and 0, 2.5, or 5 mg/ml AHA or DTNB. To each respective well, either 50 μl DMEM (control) or P. aeruginosa pretreated with 0, 2.5, or 5 mg/ml AHA or with 0, 1, 5 or 10 mM DTNB and diluted within DMEM to attain OD600 0.373 or 0.257, respectively, were added, with three technical repeats for each condition. The plates were incubated at 37° C. for ˜2 days (48-52 hours) and washed twice with PBS, fixed with PFA 4% for 10 minutes, and embedded in either cryosection (OCT) compound or paraffin. Paraffin samples were cut into 7 micron slices and stained with H&E; whereas cryosections were cut into 10 micron slices and placed on superfrost plus slides.

[2] = tested on: P. aeruginosa pre-existing biofilm; test: P. aeruginosa pre-existing biofilm, Crystal Violet Staining; settings: biofilms grown 12 hours in TSB, treated 6 hours in PBS (FIG. 8)
Method: P. aeruginosa biofilms were grown in multi-well 24 wells plates in TSB for 12 hours. Following, biofilms were treated either in PBS or PBS applied with the indicated concentrations of sodium vanadate, DTNB or AHA for 6 hours. Results are shown as intensity of crystal violet staining (OD595) compared with the initial absorbance prior to treatment.
(§1) Crystal Violet—From each individual culture, 20 μl samples from exponential phase and 180 μl of TSB broth were dispensed in the wells of sterile 96-wells flat-bottomed microtiter plate (Nunc) and incubated at 37° C. for 24 hours. The control well contained only TSB broth without inoculation. Following incubation, unbound cells were removed by inversion of the microtiter plate, followed by vigorous tapping on an absorbent paper. Subsequently, adhered cells were fixed for 30 minutes at […]. Adhered cells were stained by addition of 220 μl of crystal violet (0.5%) for 5 minutes. The stain was removed by exhaustive washing with distilled water. The plates were then allowed to dry. In order to quantify adhered cells, 220 μl of decoloring solution (95% ethanol) was added to each well for 15 minutes. The absorption of the eluted stain was measured at 590 nm.

[3] = tested on: M. smegmatis planktonic cells; test: Planktonic growth (OD600) of M. smegmatis in B4 medium; settings: B4 medium with Ca (FIG. 3C lower)
Method: (§2) B. subtilis and M. smegmatis colonies grown on 1.5% B4 agar, supplemented with Ca acetate. FIG. 3A is a schematic representation of the biomineralization reactions leading to bicarbonate production. […] Scale bars represent 2 mm. […] DMSO served as a positive control and a medium not supplemented with Ca served as a negative control. Scale bars represent 2 mm. […] Colonies were grown in a medium supplemented with 0.025% Ca and treated with 10 mg/ml AHA. DMSO served as a positive control and a medium not supplemented with Ca served as a negative control. Scale bars represent 2 mm in the upper panels; and 0.5 mm in the lower panels.
(§3) Growth Analysis—To determine growth kinetics of planktonic bacteria,the cultures were grown for 15-30 hours at 30° C. in a plate reader (BioTek, Winooski, Vt., USA) and the optical density at 600 nm (OD600) was measured every 20 minutes. Results are presented as averages for 5-6 wells from a single representative experiment out of three.

[4] = tested on: B. subtilis; test: Planktonic growth (OD600) of B. subtilis in B4 medium; settings: B4 medium with Ca, AHA concentrations giving smooth colonies (FIG. 3C upper)
Method: as §2, §3

[5] = tested on: P. aeruginosa; test: Survival of P. aeruginosa biofilm after exposure to ciprofloxacin or gentamicin (CFU); settings: alone or in combination (FIGS. 7 and 9)
Method: P. aeruginosa biofilms were grown in multi-well 24 wells plates in TSB for 12 hours. Following, biofilms were treated either in PBS or PBS applied with the indicated concentrations of DTNB, AHA, CIP and/or GM for 6 hours. Following treatment, the biofilms were mildly sonicated and serially diluted to assess the number of CFU within each group.

[6] = tested on: M. smegmatis; test: Pellicle biofilm model, M. smegmatis in liquid B4; settings: liquid B4, 0.025% calcium acetate, 4 days (FIG. 4B)
Method: (§4) B. subtilis (FIG. 4A) and M. smegmatis (FIG. 4B) cells were grown in liquid B4 supplemented with 0.25% and 0.025% calcium acetate, respectively, and treated with AHA at the indicated concentrations. DMSO served as a positive control and a medium not supplemented with Ca served as a negative control. The images of the top view of the wells were taken following robust pellicles formed in the DMSO control—at 3 days for B. subtilis and at 4 days for M. smegmatis.

[7] = tested on: B. subtilis colonies; test: B. subtilis colony biofilm on B4 agar with Ca acetate
[8] = tested on: B. subtilis; test: Pellicle biofilm model, B. subtilis in liquid B4
Method: as §4
B. subtilis cells were grown in liquid B4 supplemented with 0.25% calcium acetate and treated with AHA at the indicated concentrations. DMSO served as a positive control and a medium not supplemented with Ca served as a negative control. The images of the top view of the wells were taken following 6 days; and the weight of the mineral was determined following removal of all organic material by bleaching.
Analysis of the weight of the minerals—(A) Thermogravimetric analysis (TGA) of the B. subtilis colonies was performed as described previously [Levi-Kalisman et al., J Chem Soc Dalton (2000), 3977-3982] for at-least three colonies materials combined for each time point. The weight loss associated with the calcite relates to the temperature range 650-800° C. Results are presented as an average of at-least three independent experiments. […]

[9] = tested on: P. aeruginosa; test: P. aeruginosa biofilm formation, Crystal Violet Staining; settings: for biofilm development: P. aeruginosa submerged biofilm, single inhibitor (FIG. 6); for biofilm formation / combination effect on biofilm formation: P. aeruginosa; for biofilm formation: single inhibitor (FIGS. 13-14)
Method: as §1

[10] = tested on: M. smegmatis colonies; test: M. smegmatis colony biofilm on B4 agar with Ca acetate
[11] = tested on: P. aeruginosa; test: Planktonic growth of P. aeruginosa; settings: inhibitor concentrations used, data not shown
Method: as §3

[12] = tested on: B. subtilis colonies; test: FITC diffusion in colony cross-sections; settings: day 3 B. subtilis colonies, 0.025% Ca, 10 mg/ml AHA, 4 hours after FITC (FIG. 3E)
Method: as §2
Imaging—All images were taken using a Nikon D3 camera or a Stereo Discovery V20″ microscope (Tochigi, Japan) with objectives Plan Apo S ×0.5 FWD 134 mm or Apo S ×1.0 FWD 60 mm (Zeiss, Goettingen, Germany) attached to a high-resolution microscopy Axiocam camera. Data were created and processed using Axiovision suite software (Zeiss). To visualize colony cross-sections, a warm low-melt agar was poured over the colony following incubation with FITC, and allowed to solidify at room temperature (RT). Following, slices were made with a razor blade and immediately visualized. All experiments were repeated at least 3 times, in technical triplicates, with similar results.

Molecule	lung colonization by P. aeruginosa [1]	lung tissue death [1]	tissue damage (Hematoxylin/eosin histology) [1]	dispersal of pre-existing biofilm [2]	tolerance by planktonic cells [3]	effect on planktonic growth [4]	sensitization to ciprofloxacin and gentamicin [5]	growth, biofilm development and biomineralization in pellicle biofilm model [6]	growth, biofilm development and biomineralization of colonies ([7]; B. subtilis colonies on 1.5% B4 agar with Ca acetate (FIGS. 3A-E))	colony morphology ([7]; B. subtilis, medium with 0.25% Ca, AHA at indicated doses (FIG. 3B))	non-soluble mineral production ([8]; B. subtilis pellicle, 0.25% calcium acetate, 6 days, mineral weight after bleaching (FIG. 5))	growth, biofilm development and biomineralization in pellicle biofilm model ([8]; B. subtilis, liquid B4, 0.25% calcium acetate, 3 days (FIG. 4A))	biofilm development [9]	biofilm formation [9]	colony morphology ([10]; 0.025% Ca, AHA concentrations tolerated by planktonic cells (FIG. 3D))	growth, biofilm development and biomineralization ([10]; inhibition of urease activity)	effect on planktonic growth [11]	formation of diffusion barriers within the colony [12]	combination effect on biofilm formation ([9]; in combination with AHA (FIG. 13))	combination effect on biofilm formation ([9]; in combination with DTNB (FIG. 14))
CC(=O)NO [AHA, acetohydroxamic acid]	diminished lung colonization by P. aeruginosa	prevented lung tissue death	prevents tissue damage	able to disperse a pre-existing P. aeruginosa biofilm	well-tolerated	little or no effect on planktonic growth	sensitized the P. aeruginosa colonies to treatment with ciprofloxacin and gentamicin	inhibits growth, biofilm development and biomineralization	inhibits growth, biofilm development and biomineralization	smooth colony morphology	decreased non-soluble mineral production	inhibits growth, biofilm development and biomineralization	impaired biofilm development	inhibited biofilm formation	less wrinkled colonies	inhibited growth, biofilm development and biomineralization	little or no effect on planktonic growth	prevented the formation of the diffusion barriers within the colony	–	–
O=C(O)c1cc(SSc2ccc([N+](=O)[O-])c(C(=O)O)c2)ccc1[N+](=O)[O-] [DTNB, 5,5′-Dithiobis (2-nitrobenzoic acid, DTNB)]	diminished lung colonization by P. aeruginosa	prevented lung tissue death	prevents tissue damage	able to disperse a pre-existing P. aeruginosa biofilm	–	–	sensitized the P. aeruginosa colonies to treatment with ciprofloxacin and gentamicin	–	–	–	–	–	impaired biofilm development	inhibited biofilm formation	–	–	little or no effect on planktonic growth	–	–	–
sodium vanadate	–	–	–	–	–	–	–	–	–	–	–	–	–	inhibited biofilm formation	–	–	–	–	synergistic	synergistic

— patent US20210015889A1, “METHODS OF DISRUPTING A BIOFILM AND/OR PREVENTING FORMATION OF SAME” (Yeda Research and Development Co. Ltd., priority 2018, published 2021)
